For experiment [1], the system named is Nrf2 (ARE-luciferase reporter) in DLD-1/ARE-E2 cells. Briefly: Nrf2 activation cell-based assay, ARE-luciferase reporter, DLD-1/ARE-E2 cell line. Also on record: species or system Human. As to conditions: for Concentration at maximum Nrf2 activation fold change (@ [uM]) / Maximum Nrf2 Activation Fold Change: DLD-1/ARE-E2; for Maximum Nrf2 Activation Fold Change: luciferase fold change over DMSO control; for Activation of ARE-dependent signaling of the luciferase reporter construct: summary in words of Table 1 (both reporter cell lines). On the procedure:
(§1) Human cancer cell line DLD-1 and breast cancer cell line MCF7 reporter stable cell lines were generated by transfection with a firefly luciferase reporter construct harboring the luciferase cDNA cloned downstream of eight catenated copies of the antioxidant response element (ARE: SEQ ID NO.:1).
(§2) To measure Nrf2 activation in the ARE-luciferase reporter cell lines, the cells were plated in 96-well plates at 20-50 k cells/well 24 hours prior to stimulation with the test compounds. The test compounds were prepared in dimethylsulfoxide (DMSO) and diluted with culture media to required concentrations (final DMSO concentrations <0.3%). The reporter cells were harvested 24 hours-48 hours after addition of the compounds and lysed for detection of luciferase activity. Luciferase activity in the lysates was monitored using the Bright-Glo Luciferase Assay System of Promega and Tecan Genios Pro plate reader.
(§3) Luciferase induction in the compound-treated cells was calculated as fold change over the baseline activity detected in control cultures treated with DMSO-containing media.

For experiment [2], the system named is Nrf2 (ARE-luciferase reporter) in MCF7/ARE-D3 cells. Briefly: Nrf2 activation cell-based assay, ARE-luciferase reporter, MCF7/ARE-D3 cell line. Also on record: species or system Human. The following applies: for Maximum Nrf2 Activation Fold Change: luciferase fold change over DMSO control. The procedure:
as §1, §2, §3

Where a name gives a salt, the structure may show the parent alone.

Consider `COC(=O)/C=C/C(=O)O[Si](C)(C)OC(=O)/C=C/C(=O)OC` [Compound 11, (E)-O,O′-(dimethylsilanediyl)dimethyl difumarate], for which the “Concentration at maximum Nrf2 activation fold change (@ [uM])” value is 1000 µM in experiment [1] (24 hr stimulation), 1000 µM in experiment [1] (48 hr stimulation), 750 µM in experiment [2] (24 hr stimulation) and 500 µM in experiment [2] (48 hr stimulation). Moreover, the “Maximum Nrf2 Activation Fold Change” value in experiment [1] (24 hr stimulation) stood at 42; in experiment [1] (48 hr stimulation), 43; in experiment [2] (24 hr stimulation), 97; in experiment [2] (48 hr stimulation) it was 126. Moreover, the “Activation of ARE-dependent signaling of the luciferase reporter construct” value in experiment [1] is reported as “able to activate ARE-dependent signaling”.

With `COC(=O)/C=C/C(=O)OC` [DMF, dimethyl fumarate, reference compound], the “Concentration at maximum Nrf2 activation fold change (@ [uM])” value in experiment [1] (24 hr stimulation) worked out at 31 µM; in experiment [1] (48 hr stimulation), 47 µM; in experiment [2] (24 hr stimulation), 94 µM; in experiment [2] (48 hr stimulation) it was 94 µM. Besides, the “Maximum Nrf2 Activation Fold Change” value in experiment [1] (24 hr stimulation) is reported as 11; in experiment [1] (48 hr stimulation), 13; in experiment [2] (24 hr stimulation), 24; in experiment [2] (48 hr stimulation), 45.

`COC(=O)/C=C/C(=O)OC[Si](OC)(OC)OC` [Compound 12, methyl ((trimethoxysilyl)methyl) fumarate]: the “Concentration at maximum Nrf2 activation fold change (@ [uM])” value in experiment [1] (24 hr stimulation) stood at 250 µM; in experiment [1] (48 hr stimulation), 375 µM; in experiment [2] (24 hr stimulation), 500 µM; in experiment [2] (48 hr stimulation) it was 500 µM. In addition, the “Maximum Nrf2 Activation Fold Change” value amounted to 24 in experiment [1] (24 hr stimulation), 48 in experiment [1] (48 hr stimulation), 49 in experiment [2] (24 hr stimulation) and 65 in experiment [2] (48 hr stimulation). Further, in experiment [1], the “Activation of ARE-dependent signaling of the luciferase reporter construct” value is recorded as “able to activate ARE-dependent signaling”.

`COC(=O)/C=C/C(=O)O` [MMF, monomethyl fumarate, reference compound]: the “Concentration at maximum Nrf2 activation fold change (@ [uM])” value in experiment [1] (24 hr stimulation), in experiment [1] (48 hr stimulation), in experiment [2] (24 hr stimulation) and in experiment [2] (48 hr stimulation) was 1000 µM throughout. The “Maximum Nrf2 Activation Fold Change” value was 7 in experiment [1] (24 hr stimulation), 14 in experiment [1] (48 hr stimulation), 56 in experiment [2] (24 hr stimulation) and 88 in experiment [2] (48 hr stimulation).

The values above are taken from patent US9421273B2, “Silicon-containing fumaric acid esters” (Biogen Idec MA Inc., priority 2011, dated 2016).
